Measured values published in US8710003B2, “Treatment of diabetes with milk protein hydrolysate” (Nestec S.A., priority 1999, dated 2014).

Tested on: NCI-H716 cells
Experiment: Release of active GLP-1 by NCI-H716 cells
Assay type: cell-based, human
Conditions: alpha-lactose dose equivalent to that contained in the wheys, 2 h incubation, active GLP-1 only
Description: Cells were grown in suspension at 37° C., 5% CO2. The culture medium consisted of RPMI 1640 supplemented with 10% FBS, 2 mM L-glutamine, 100 IU/ml penicillin and 100 μg/ml streptomycin. […] Cells were, therefore, seeded in dishes coated with […] ® (Becton Dickinson, Bedford, Mass., USA) two days before experiments.
Two days before experiments, 1×10^6 cells were seeded in 12 well culture plates coated with […] ®. On the day of the experiment, the supernatant was replaced by Krebs-Ringer Bicarbonate Buffer (KRB) containing 0.2% wt/vol BSA with or without CGMP. Cells were incubated for 2 h at 37° C. Supernatants were collected with the addition of 50 μg/ml PMSF and frozen at −80° C. for subsequent analysis by radioimmunoassay (RIA) of GLP-1. Cells were scraped with a rubber policeman and homogenization buffer [1 N HCl containing 5% (v/v) HCOOH, 1% (v/v) trifluoroacetic acid (TFA), and 1% (v/v) NaCl] and sonicated for 15 s. […] The intraassay coefficient of variance was 2.28%.
Here, a kit was used that only measures the active form of GLP-1, i.e., GLP-1 (7-37) or GLP-1 (7-36 amide), but not the degraded form, GLP-1 (9-36 amide), as was included in the data for FIGS. 1-3.

For `OC[C@H]1O[C@@H](O[C@H]2[C@H](O)[C@@H](O)[C@@H](O)O[C@@H]2CO)[C@H](O)[C@@H](O)[C@H]1O` [alpha-lactose], the “GLP-1 secretion compared to the control” value was 144±32%.
